Data published in patent US4954507A, “1-tertiary-alkyl-substituted naphthyridine carboxylic acid antibacterial agents” (priority 1988, dated 1990).
≈ marks a conversion by molar mass, not a printed value. Where two headings read alike, the source gives them in different places.

Key:
Escherichia coli = assay: MIC, microtitration dilution method, E. coli; format: cell-based
Protocol: (§1) The compounds of this invention display antibacterial activity when tested by the microtitration dilution method reported by Heifetz et al., Antimicr. Agents & Chemoth., 6. 124 (1974). Minimum inhibitory concentrations (MICs, in μg/ml) for but a few representative compounds according to this invention were determined by the above-mentioned method.

Enterobacter cloacae = assay: MIC, microtitration dilution method, E. clo.; format: cell-based
Streptococcus faecalis = assay: MIC, microtitration dilution method, S. faecal.; format: cell-based
Protocol: as §1

Streptococcus faecium = assay: MIC, microtitration dilution method, S. faeci.; format: cell-based
Protocol: as §1

Staphylococcus aureus = assay: MIC, microtitration dilution method, S. aur.; format: cell-based
Protocol: as §1

Pseudomonas aeruginosa = assay: MIC, microtitration dilution method, P. aer.; format: cell-based
Protocol: as §1

Klebsiella pneumoniae = assay: MIC, K. pneum.; format: cell-based
Protocol: as §1

Klebsiella oxytoca = assay: MIC, microtitration dilution method, K. oxyto.; format: cell-based; details: Table 2
Protocol: as §1

[1] = in words; from Tables 2, 3 and 4
physchem = details: water
[2] = Escherichia coli, Table 3, E. coli, read-out: MIC
[3] = Enterobacter cloacae, Table 3, E. clo., read-out: MIC
[4] = Enterococcus faecalis, Table 3, S. faecal., read-out: MIC
[5] = Enterococcus faecium, Table 3, S. faeci., read-out: MIC
[6] = Staphylococcus aureus, Table 3, S. aur., read-out: MIC
[7] = Pseudomonas aeruginosa, Table 3, P. aer., read-out: MIC
[8] = Table 3, K. pneum., read-out: MIC

`CC1CN(c2nc3c(cc2F)c(=O)c(C(=O)O)cn3C(C)(C)C)CC1N` (mixture of isomers) [Example 42] showed an MIC (Escherichia coli; Escherichia coli) of 0.008 µg/mL, an MIC (Enterobacter cloacae; Enterobacter cloacae) of 0.015 µg/mL and an MIC (Streptococcus faecalis; Enterococcus faecalis) of 0.25 µg/mL. It also gave an MIC (Streptococcus faecium; Enterococcus faecium) of 1 µg/mL, an MIC (Staphylococcus aureus; Staphylococcus aureus) of 0.03 µg/mL and an MIC (Pseudomonas aeruginosa; Pseudomonas aeruginosa) of 0.25 µg/mL. For the same molecule, the MIC (Klebsiella pneumoniae) was 0.06 µg/mL.
`C[C@H]1CN(c2nc3c(cc2F)c(=O)c(C(=O)O)cn3C(C)(C)C)C[C@H]1N` (relative stereo) [Example 47, 7-(cis-3-amino-4-methyl-pyrrolidin-1-yl)-1-(1,1-dimethylethyl)-1,4-dihydro-6-fluoro-4-oxo-1,8-naphthyridine-3-carboxylic acid] gave an MIC (Escherichia coli; Escherichia coli) of 0.25 µg/mL (≈ 0.69 µM), an MIC (Enterobacter cloacae; Enterobacter cloacae) of 0.13 µg/mL (≈ 0.359 µM) and an MIC (Streptococcus faecalis; Enterococcus faecalis) of 0.13 µg/mL (≈ 0.359 µM). The MIC (Streptococcus faecium; Enterococcus faecium) was 1 µg/mL (≈ 2.76 µM), the MIC (Staphylococcus aureus; Staphylococcus aureus) was 0.015 µg/mL (≈ 0.0414 µM) and the MIC (Pseudomonas aeruginosa; Pseudomonas aeruginosa) was 0.5 µg/mL (≈ 1.38 µM). The MIC (Klebsiella pneumoniae) was 0.03 µg/mL (≈ 0.0828 µM).
For `CS(=O)(=O)O.C[C@@H]1CN(c2nc3c(cc2F)c(=O)c(C(=O)O)cn3C(C)(C)C)C[C@H]1N` (relative stereo) [Example 48, 7-(trans-3-amino-4-methylpyrrolidin-1-yl)-1-(1,1-dimethylethyl)-1,4-dihydro-6-fluoro-4-oxo-1,8-naphthyridine-3-carboxylic acid (methanesulfonate)], the MIC (Escherichia coli; Escherichia coli) was 0.015 µg/mL, the MIC (Enterobacter cloacae; Enterobacter cloacae) was 0.015 µg/mL and the MIC (Streptococcus faecalis; Enterococcus faecalis) was 0.06 µg/mL. It also gave an MIC (Streptococcus faecium; Enterococcus faecium) of 0.5 µg/mL, an MIC (Staphylococcus aureus; Staphylococcus aureus) of 0.008 µg/mL and an MIC (Pseudomonas aeruginosa; Pseudomonas aeruginosa) of 0.25 µg/mL. The MIC (Klebsiella pneumoniae) was 0.06 µg/mL.
With `O=C(O)c1cn(C2CC2)c2cc(N3CCNCC3)c(F)cc2c1=O` [Cip., 1-cyclopropyl-6-fluoro-1,4-dihydro-7-(1-piperazinyl)-4-oxo-quinoline-3-carboxylic acid, reference compound] the MIC (Escherichia coli; [2]) was 0.015 µg/mL (≈ 0.0453 µM), the MIC (Streptococcus faecium; Enterococcus faecium) was 8 µg/mL (≈ 24.1 µM) and the MIC (Staphylococcus aureus; Staphylococcus aureus) was 0.13 µg/mL (≈ 0.392 µM). For the same molecule, the MIC (Pseudomonas aeruginosa; Pseudomonas aeruginosa) was 0.13 µg/mL (≈ 0.392 µM) and the MIC (Klebsiella pneumoniae) was 0.03 µg/mL (≈ 0.0905 µM).
`CC(C)(C)n1cc(C(=O)O)c(=O)c2cc(F)c(N3C[C@@H]4CC[C@H]3CN4)nc21` [Example 23, 7-(1S,4S-2,5-DIAZABICYCLO[2.2.2]OCTAN-2-YL)-1-(1,1-DIMETHYLETHYL)-1,4-DIHYDRO-6-FLUORO-4-OXO-1,8-NAPHTHYRIDINE-3-CARBOXYLIC ACID] showed an MIC (Escherichia coli; Table 2, E. coli) of 130 µg/mL (≈ 347 µM), an MIC (Enterobacter cloacae; Table 2, E. clo.) of 60 µg/mL (≈ 160 µM) and an MIC (Streptococcus faecalis; Table 2, S. faecal.) of 500 µg/mL (≈ 1340 µM). The MIC (Klebsiella oxytoca) was 500 µg/mL (≈ 1340 µM), the MIC (Streptococcus faecium; Table 2, S. faeci.) was 2000 µg/mL (≈ 5340 µM) and the MIC (Staphylococcus aureus; Table 2, S. aur.) was 30 µg/mL (≈ 80.1 µM). The MIC (Pseudomonas aeruginosa; Table 2, P. aer.) was 1000 µg/mL (≈ 2670 µM).
In the case of `CC(C)(C)n1cc(C(=O)O)c(=O)c2cc(F)c(N3C[C@H]4C[C@@H]3CN4)nc21` [Example 30], the MIC (Escherichia coli; [2]) is reported as 0.06 µg/mL (≈ 0.166 µM), the “combination of anti-bacterial, toxicity, and water-solubility properties” value [1] is reported as “highly advantageous combination of the above mentioned properties” and the MIC (Enterobacter cloacae; [3]) is reported as 0.03 µg/mL (≈ 0.0832 µM). The MIC (Streptococcus faecalis; [4]) was 0.25 µg/mL (≈ 0.694 µM), the MIC (Streptococcus faecium; [5]) was 2 µg/mL (≈ 5.55 µM) and the solubility (physchem) was 80 µg/mL (≈ 222 µM). It also gave an MIC (Staphylococcus aureus; [6]) of 0.06 µg/mL (≈ 0.166 µM), an MIC (Pseudomonas aeruginosa; [7]) of 0.13 µg/mL (≈ 0.361 µM) and an MIC (Klebsiella pneumoniae; [8]) of 0.06 µg/mL (≈ 0.166 µM).
Work on `CC(C)(C)n1cc(C(=O)O)c(=O)c2cc(F)c(N3CCC(N)C3)nc21` (stereo not shown) [Example 36, 7-(3-AMINO-1-PYRROLIDINYL)-1-(1,1-DIMETHYLETHYL)-1,4-DIHYDRO-6-FLUORO-4-OXO-1,8-NAPHTHYRIDINE-3-CARBOXYLIC ACID] yielded an MIC (Escherichia coli; Escherichia coli) of 0.13 µg/mL (≈ 0.373 µM), an MIC (Enterobacter cloacae; Enterobacter cloacae) of 0.06 µg/mL (≈ 0.172 µM) and an MIC (Streptococcus faecalis; Enterococcus faecalis) of 0.25 µg/mL (≈ 0.718 µM). The MIC (Streptococcus faecium; Enterococcus faecium) was 1 µg/mL (≈ 2.87 µM), the MIC (Staphylococcus aureus; Staphylococcus aureus) was 0.015 µg/mL (≈ 0.0431 µM) and the MIC (Pseudomonas aeruginosa; Pseudomonas aeruginosa) was 0.25 µg/mL (≈ 0.718 µM). It also gave an MIC (Klebsiella pneumoniae) of 0.13 µg/mL (≈ 0.373 µM).
`CC(C)(C)n1cc(C(=O)O)c(=O)c2cc(F)c(N3CC[C@@H](N)C3)nc21` [Example 45, 7-[(R)-3-AMINO-PYRROLIDINYL]-1-(1,1-DIMETHYLETHYL)-1,4-DIHYDRO-6-FLUORO-4-OXO-1,8-NAPHTHYRIDINE-3-CARBOXYLIC ACID, METHANESULFONATE] showed an MIC (Escherichia coli; Escherichia coli) of 0.06 µg/mL, an MIC (Enterobacter cloacae; Enterobacter cloacae) of 0.06 µg/mL and an MIC (Streptococcus faecalis; Enterococcus faecalis) of 0.13 µg/mL. For the same molecule, the MIC (Streptococcus faecium; Enterococcus faecium) was 1 µg/mL, the MIC (Staphylococcus aureus; Staphylococcus aureus) was 0.15 µg/mL and the MIC (Pseudomonas aeruginosa; Pseudomonas aeruginosa) was 0.25 µg/mL. For the same molecule, the MIC (Klebsiella pneumoniae) was 0.13 µg/mL.
For `CC(C)(C)n1cc(C(=O)O)c(=O)c2cc(F)c(N3CC[C@H](N)C3)nc21` [Example 46, 7-[(S)-3-amino-1-pyrrolidinyl]-1-(1,1-dimethylethyl)-6-fluoro-1,4-dihydro-4-oxo-1,8-naphthyridine-3-carboxylic acid], the MIC (Escherichia coli; Escherichia coli) was 0.015 µg/mL (≈ 0.0431 µM), the MIC (Enterobacter cloacae; Enterobacter cloacae) was 0.008 µg/mL (≈ 0.023 µM) and the MIC (Streptococcus faecalis; Enterococcus faecalis) was 0.03 µg/mL (≈ 0.0861 µM). It also gave an MIC (Streptococcus faecium; Enterococcus faecium) of 0.25 µg/mL (≈ 0.718 µM), an MIC (Staphylococcus aureus; Staphylococcus aureus) of 0.008 µg/mL (≈ 0.023 µM) and an MIC (Pseudomonas aeruginosa; Pseudomonas aeruginosa) of 0.06 µg/mL (≈ 0.172 µM). For the same molecule, the MIC (Klebsiella pneumoniae) was 0.03 µg/mL (≈ 0.0861 µM).
Molecule `CCn1cc(C(=O)O)c(=O)c2cc(F)c(N3CCNCC3)cc21` [Nor., 1-ethyl-6-fluoro-1,4-dihydro-7-(1-piperazinyl)-4-oxo-quinoline-3-carboxylic acid, reference compound] has an MIC (Escherichia coli; [2]) of 0.06 µg/mL (≈ 0.188 µM), an MIC (Enterobacter cloacae; [3]) of 0.06 µg/mL (≈ 0.188 µM) and an MIC (Streptococcus faecalis; [4]) of 2 µg/mL (≈ 6.26 µM). For the same molecule, the MIC (Streptococcus faecium; [5]) was 8 µg/mL (≈ 25.1 µM), the MIC (Staphylococcus aureus; [6]) was 0.25 µg/mL (≈ 0.783 µM) and the MIC (Pseudomonas aeruginosa; [7]) was 0.5 µg/mL (≈ 1.57 µM). The MIC (Klebsiella pneumoniae; [8]) was 0.03 µg/mL (≈ 0.0939 µM).
